This note sets out measurements from PMC12301304 (Frontiers in Pharmacology, 2025).

Where two headings read alike, the source gives them in different places.

One series deals with T1, CYP2c11 (Rattus norvegicus, UniProt P08683).
T1 sequence (P08683 1-500): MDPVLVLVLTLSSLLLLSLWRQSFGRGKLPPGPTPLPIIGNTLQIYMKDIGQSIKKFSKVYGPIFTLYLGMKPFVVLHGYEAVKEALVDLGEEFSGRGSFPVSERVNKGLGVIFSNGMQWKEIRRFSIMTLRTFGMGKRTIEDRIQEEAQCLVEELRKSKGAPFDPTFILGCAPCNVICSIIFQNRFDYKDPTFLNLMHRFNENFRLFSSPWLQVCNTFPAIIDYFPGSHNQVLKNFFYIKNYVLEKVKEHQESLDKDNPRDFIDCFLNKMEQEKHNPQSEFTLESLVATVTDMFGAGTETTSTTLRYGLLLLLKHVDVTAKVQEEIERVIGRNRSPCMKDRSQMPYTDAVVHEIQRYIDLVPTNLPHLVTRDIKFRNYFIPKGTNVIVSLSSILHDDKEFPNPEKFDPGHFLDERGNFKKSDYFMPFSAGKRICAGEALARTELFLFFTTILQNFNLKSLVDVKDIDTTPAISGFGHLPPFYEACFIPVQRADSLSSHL
As to the method: (§1) The effect of the Zhicaowu–Hezi combination on CYP450 enzymes in RLM was evaluated by assessing the metabolic clearance rates of theophylline, metoprolol, bupropion, mephenytoin (CYP2c13), chlorzoxazone, testosterone, and diclofenac.
(§2) On day 15, the rats were humanely euthanized, and liver tissues were excised for microsomal preparation. […] Livers from each group were repeatedly washed with ice-cold phosphate buffered saline (PBS). […] Subsequently, they were blotted dry with filter paper, weighed, and homogenized by adding 4 mL of ice-cold PBS per gram of liver tissue. The mixture was homogenized in an ice bath. The liver homogenate was subjected to centrifugation at 10,000 RPM for 20 min at 4°C. The resulting supernatant was then combined with an ice-cold 88-mmol/L CaCl2 solution at a 1:1 ratio, and the mixture was homogenized in an ice bath for 5 min. The resulting solution was then centrifuged at 25,000 × g for 30 min at 4°C. The supernatant was discarded and the precipitate was repeatedly resuspended in PBS–20% glycerol buffer. The precipitate was then stored in a separate bottle at −80°C for backup. The protein concentration of the prepared RLM was determined using a bicinchoninic acid protein assay kit.
(§3) Preincubation was conducted for 5 min in a water bath at 37°C, after which NADPH (1 mmol/L) was added, and incubation continued for 30 min at 37°C. Once the incubation period elapsed, the reaction was terminated by the addition of an ice-cold IS-containing acetonitrile solution. The samples were vortexed for 2 min and centrifuged at 15,000 RPM for 10 min. The resulting supernatant was filtered through a 0.22-μm organic microporous membrane, and 20 μL of the filtered solution was injected into the HPLC assay. To prevent the organic solvents from inducing or inhibiting the enzyme, the volume fraction of organic solvents in the entire incubation system was maintained at 1%. […] The inhibitor group was added with corresponding inhibitor, while all other procedures remained identical.

The target of a further series is T2, CYP3a1 (Rattus norvegicus, UniProt P04800).
T2 sequence (P04800 1-504): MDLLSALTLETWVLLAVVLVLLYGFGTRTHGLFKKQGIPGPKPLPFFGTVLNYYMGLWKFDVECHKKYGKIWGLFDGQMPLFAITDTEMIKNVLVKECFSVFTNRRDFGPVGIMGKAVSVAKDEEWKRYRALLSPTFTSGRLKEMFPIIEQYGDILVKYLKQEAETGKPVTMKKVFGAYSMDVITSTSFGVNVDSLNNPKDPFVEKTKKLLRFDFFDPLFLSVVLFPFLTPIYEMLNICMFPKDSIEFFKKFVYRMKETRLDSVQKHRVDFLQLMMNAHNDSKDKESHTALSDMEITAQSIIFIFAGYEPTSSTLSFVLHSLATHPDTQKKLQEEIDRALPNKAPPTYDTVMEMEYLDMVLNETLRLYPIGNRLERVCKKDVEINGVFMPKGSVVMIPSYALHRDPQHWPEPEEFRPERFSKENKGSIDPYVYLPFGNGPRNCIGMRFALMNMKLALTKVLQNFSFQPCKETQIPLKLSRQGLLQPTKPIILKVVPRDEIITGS
The method, then: as §1, §2, §3

The target in a further series is T3, CYP1a2 (Rattus norvegicus, UniProt P04799).
T3 sequence (P04799 1-513): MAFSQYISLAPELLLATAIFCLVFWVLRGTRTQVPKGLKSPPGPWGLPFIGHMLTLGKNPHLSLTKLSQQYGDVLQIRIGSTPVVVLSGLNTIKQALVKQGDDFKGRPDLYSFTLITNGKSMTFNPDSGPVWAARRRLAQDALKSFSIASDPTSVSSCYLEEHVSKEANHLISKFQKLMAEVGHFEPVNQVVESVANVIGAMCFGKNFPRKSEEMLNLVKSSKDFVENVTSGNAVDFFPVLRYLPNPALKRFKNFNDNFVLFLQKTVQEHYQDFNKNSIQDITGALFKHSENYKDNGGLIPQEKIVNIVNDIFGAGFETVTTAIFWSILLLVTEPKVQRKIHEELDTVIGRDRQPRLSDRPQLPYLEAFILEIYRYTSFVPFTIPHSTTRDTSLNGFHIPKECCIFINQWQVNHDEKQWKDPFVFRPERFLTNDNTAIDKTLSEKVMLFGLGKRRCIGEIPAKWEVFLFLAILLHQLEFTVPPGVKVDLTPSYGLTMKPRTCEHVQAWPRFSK
Particulars: microsomes. As to the method: as §1, §2, §3

A further series concerns the target T4, CYP2c13 (Rattus norvegicus, UniProt P20814).
T4 sequence (P20814 1-490): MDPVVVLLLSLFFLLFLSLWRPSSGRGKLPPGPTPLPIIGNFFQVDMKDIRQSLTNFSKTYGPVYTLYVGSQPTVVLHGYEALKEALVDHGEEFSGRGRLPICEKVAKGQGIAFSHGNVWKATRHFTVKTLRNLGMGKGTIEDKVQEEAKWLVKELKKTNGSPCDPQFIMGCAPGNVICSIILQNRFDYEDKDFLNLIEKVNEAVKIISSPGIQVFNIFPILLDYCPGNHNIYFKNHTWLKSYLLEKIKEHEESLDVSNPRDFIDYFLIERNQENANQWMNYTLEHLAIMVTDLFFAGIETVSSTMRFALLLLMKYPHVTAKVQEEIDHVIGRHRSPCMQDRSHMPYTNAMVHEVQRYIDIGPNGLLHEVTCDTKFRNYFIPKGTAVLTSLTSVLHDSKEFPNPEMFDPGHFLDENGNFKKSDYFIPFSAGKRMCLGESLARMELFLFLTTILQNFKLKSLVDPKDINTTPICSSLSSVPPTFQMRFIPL
Briefly: RLM incubation: metabolic clearance rate of mephenytoin (CYP2c13). The following applies: RLM 0.5 mg/mL, 30 min 37°C, inhibitor added, blank control 15.97 ± 0.68, n = 3. The method, then:
as §1, §2, §3

Turning to `S=P(N1CC1)(N1CC1)N1CC1` [Thiotepa], the “CYP2c11(%) metabolic clearance rate of probe drug” value at CYP2c11 turned out to be 21.84 ± 2.64%. For the same molecule, at CYP3a1, the “CYP3a1 (%) metabolic clearance rate of probe drug” value is 25.72 ± 2.36%. Further, the “CYP1a2 (%) metabolic clearance rate of probe drug” value on CYP1a2 is given as 35.91 ± 1.40%. Moreover, at CYP2c13, the “CYP2c13(%) metabolic clearance rate of probe drug” value is 14.43 ± 0.36%.

Turning to `O=c1cc(-c2ccccc2)oc2c1ccc1ccccc12` [α-naphthoflavone], the “CYP2c11(%) metabolic clearance rate of probe drug” value on CYP2c11 (RLM 0.5 mg/mL, 30 min 37°C, inhibitor added, probe diclofenac, blank control 21.12 ± 3.80, n = 3) came to 23.02 ± 0.55%. Moreover, the “CYP3a1 (%) metabolic clearance rate of probe drug” value on CYP3a1 (RLM 0.5 mg/mL, 30 min 37°C, inhibitor added, probe testosterone, blank control 25.04 ± 1.93, n = 3) is 25.69 ± 2.09%. In addition, the “CYP1a2 (%) metabolic clearance rate of probe drug” value at CYP1a2 stood at 28.92 ± 1.91 %. The “CYP2c13(%) metabolic clearance rate of probe drug” value at CYP2c13 amounted to 16.65 ± 3.04%.
